According to patent US9957271B2, “Substituted bicyclic aza-heterocycles and analogues as sirtuin modulators” (GlaxoSmithKline, LLC, priority 2012, dated 2018):
Like-named read-outs stand apart in the source and are kept apart here.

Target: T1, SIRT1 (Homo sapiens, UniProt Q96EB6)
T1 sequence (Q96EB6 1-747): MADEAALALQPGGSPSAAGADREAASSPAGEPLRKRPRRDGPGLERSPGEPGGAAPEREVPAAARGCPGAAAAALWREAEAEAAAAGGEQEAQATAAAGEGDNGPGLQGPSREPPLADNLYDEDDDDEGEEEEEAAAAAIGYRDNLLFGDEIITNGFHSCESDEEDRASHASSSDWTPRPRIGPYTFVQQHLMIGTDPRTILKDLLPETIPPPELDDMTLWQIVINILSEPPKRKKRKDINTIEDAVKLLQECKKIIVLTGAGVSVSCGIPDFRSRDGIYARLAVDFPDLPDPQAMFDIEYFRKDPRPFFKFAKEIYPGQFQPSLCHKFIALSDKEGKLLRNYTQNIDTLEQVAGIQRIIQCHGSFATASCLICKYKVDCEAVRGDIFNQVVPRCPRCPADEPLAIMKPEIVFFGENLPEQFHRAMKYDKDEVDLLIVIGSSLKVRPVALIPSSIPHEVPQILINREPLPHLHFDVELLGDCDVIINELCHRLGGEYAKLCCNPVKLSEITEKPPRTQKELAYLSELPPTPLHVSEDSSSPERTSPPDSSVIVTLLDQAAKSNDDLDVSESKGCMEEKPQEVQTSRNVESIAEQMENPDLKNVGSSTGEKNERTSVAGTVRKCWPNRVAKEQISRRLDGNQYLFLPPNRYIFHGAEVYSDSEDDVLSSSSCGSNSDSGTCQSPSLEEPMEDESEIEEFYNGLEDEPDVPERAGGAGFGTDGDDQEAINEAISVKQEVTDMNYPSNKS
Test: TAMRA based mass spectrometry assay of SIRT1 activity
Type: biochemical
Conditions: for Emax: read-out: TAMRA % Fold Act
Outline: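 Recombinant N-terminal His-tagged human SIRT1 (10 nM, E. coli) incubated 25 min at 25 °C with 0.5 μM 5TMR-labelled p53-derived acetyl-peptide and 120 μM βNAD+ in Tris-acetate pH 8 buffer with DTT and 0.05% BSA, compound at varying concentrations. Stopped with formic acid; deacetylated peptide or OAADPR measured by mass spectrometry relative to DMSO controls.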

[1] = TAMRA peptide substrate, concentration giving 150% activation of SIRT1
[2] = TAMRA peptide substrate, percent maximum fold activation
[3] = TAMRA assay, concentration giving 150% activation of SIRT1
[4] = TAMRA assay, percent maximum fold activation
[5] = concentration of test compound giving 150% activation of SIRT1, TAMRA peptide substrate
[6] = percent maximum fold activation of SIRT1, TAMRA peptide substrate

| Compound | TAMRA EC1.5 [1] | Emax [2] [%] | TAMRA EC1.5 (μM) [3] | Emax [4] [%] | further results |
| --- | --- | --- | --- | --- | --- |
| Cc1cc(C)nc(NC(=O)c2c(C)nc3c(C)cc(-c4ccccc4OC(F)(F)F)nn23)c1 [Compound 493] | A (EC1.5<1 μM) | ≥ 350 |  |  |  |
| CCOc1cc(NC(=O)c2cnn3ccc(-c4ccccc4OC(F)(F)F)nc23)ccn1 [Compound 626] |  |  | A (EC1.5<1 μM) | ≥ 350 |  |
| Cc1cc(C)nc(NC(=O)c2cnc3ccc(N4CCC(F)(F)C4)nn23)c1 [Compound 492] | B (EC1.5 1-25 μM) | < 350 |  |  |  |
| COc1ccc(NC(=O)c2c(C)nn3ccc(-c4ccccc4C(F)(F)F)nc23)nn1 [Compound 696] |  |  | A (EC1.5<1 μM) | ≥ 350 |  |
| COc1nccc(NC(=O)c2c(C)nc3ccc(-c4ccccc4OC(F)(F)F)nn23)n1 [Compound 477] | A (EC1.5<1 μM) | ≥ 350 |  |  |  |
| O=C(Nc1cccnc1)c1cnc2ccc(-c3c(F)cccc3F)nn12 [Compound 169] |  |  |  |  | TAMRA EC1.5 (μM) [5]: C (EC1.5>25 μM); Emax [6]: < 350% |
| O=C(Nc1cnn2ccc(-c3ccccc3OC(F)(F)F)nc12)c1cnc(O)cn1 [Compound 735] |  |  | B (EC1.5 1-25 μM) | ≥ 350 |  |
| O=C(Nc1cccc(N2CCOCC2)n1)c1cnc2ccc(-c3cccc(F)c3Cl)nn12 [Compound 178] |  |  |  |  | TAMRA EC1.5 (μM) [5]: A (EC1.5<1 μM); Emax [6]: < 350% |
| O=C(Nc1cccc(N2CC3(COC3)C2)n1)c1cnc2ccc(-c3ccccc3C(F)(F)F)nn12 [Compound 537] | A (EC1.5<1 μM) | ≥ 350 |  |  |  |
| Cc1nn2ccc(-c3ccccc3C(F)(F)F)nc2c1C(=O)Nc1cncc(F)c1 [Compound 768] |  |  | A (EC1.5<1 μM) | ≥ 350 |  |
| Cc1cc(-c2ccccc2C(F)(F)F)nn2c(NC(=O)c3cscn3)cnc12 [Compound 411] | A (EC1.5<1 μM) | ≥ 350 |  |  |  |
| Cc1ccc(NC(=O)c2cnn3ccc(-c4ccccc4OC(F)(F)F)nc23)nc1 [Compound 608] |  |  | C (EC1.5>25 μM) | < 350 |  |
| O=C(Nc1cccc(CN2CCOCC2)n1)c1cnc2ccc(-c3cc(F)cc(F)c3)nn12 [Compound 45] |  |  |  |  | TAMRA EC1.5 (μM) [5]: B (EC1.5 1-25 μM); Emax [6]: < 350% |
| Cc1nc(C)c(-c2ccc3ncc(C(=O)Nc4cccc(N5CCOCC5)n4)n3n2)s1 [Compound 65] |  |  |  |  | TAMRA EC1.5 (μM) [5]: A (EC1.5<1 μM); Emax [6]: < 350% |
| O=C(Nc1cccc(OC(CO)CO)n1)c1cnc2ccc(-c3ccccc3C(F)(F)F)nn12 [Compound 423, N-(6-((1,3-dihydroxypropan-2-yl)oxy)pyridin-2-yl)-6-(2-(trifluoromethyl)phenyl)imidazo[1,2-b]pyridazine-3-carboxamide] | A (EC1.5<1 μM) | ≥ 350 |  |  |  |
| O=C(Nc1cnn2ccc(-c3ccccc3C(F)(F)F)nc12)c1nccs1 [Compound 563] | A (EC1.5<1 μM) | ≥ 350 |  |  |  |
| O=C(Nc1cnc2ccc(-c3ccccc3C(F)(F)F)nn12)c1ccnc(CN2CCOCC2)c1 [Compound 148] |  |  |  |  | TAMRA EC1.5 (μM) [5]: C (EC1.5>25 μM); Emax [6]: < 350% |
| Cc1nc(NC(=O)c2cnn3ccc(-c4ccccc4OC(F)(F)F)nc23)sc1C [Compound 614] |  |  | A (EC1.5<1 μM) | ≥ 350 |  |
| O=C(Nc1ccnc(N2CCC2)c1)c1cnc2ccc(-c3cccc(F)c3Cl)nn12 [Compound 179] |  |  |  |  | TAMRA EC1.5 (μM) [5]: A (EC1.5<1 μM); Emax [6]: < 350% |
| Cc1cc(C)nc(NC(=O)c2cnc3ccc(-c4ccccc4F)nn23)c1 [Compound 243] |  |  | A (EC1.5<1 μM) | ≥ 350 |  |
| Cc1nn2ccc(-c3ccccc3C(F)(F)F)nc2c1C(=O)Nc1nccs1 [Compound 709] |  |  | A (EC1.5<1 μM) | ≥ 350 |  |
| Cc1cc(C)nc(C(=O)Nc2cnn3ccc(-c4ccccc4C(F)(F)F)nc23)n1 [Compound 801] |  |  | A (EC1.5<1 μM) | ≥ 350 |  |
| CCOc1ccc(NC(=O)c2cnn3ccc(-c4ccccc4C(F)(F)F)nc23)nn1 [Compound 658] |  |  | A (EC1.5<1 μM) | ≥ 350 |  |
| O=C(Nc1ccccn1)c1ncn2ccc(-c3ccccc3C(F)(F)F)nc12 [Compound 450] | B (EC1.5 1-25 μM) | ≥ 350 |  |  |  |
| Cc1nc2ccc(-c3ccccc3C(F)(F)F)nn2c1C(=O)Nc1cccnn1 [Compound 462, 2-methyl-N-(pyridazin-3-yl)-6-(2-(trifluoromethyl)phenyl)imidazo[1,2-b]pyridazine-3-carboxamide] | A (EC1.5<1 μM) | ≥ 350 |  |  |  |

| Compound | TAMRA EC1.5 [1] | Emax [2] [%] | TAMRA EC1.5 (μM) [3] | Emax [4] [%] | further results |
| --- | --- | --- | --- | --- | --- |
| Cc1nc2ccc(-c3ccccc3OC(F)(F)F)nn2c1C(=O)Nc1ccncc1 [Compound 497] | A (EC1.5<1 μM) | ≥ 350 |  |  |  |
| Cc1nc2c(C)cc(-c3ccccc3C(F)(F)F)nn2c1C(=O)Nc1ccc(F)cn1 [Compound 474] | A (EC1.5<1 μM) | ≥ 350 |  |  |  |
| O=C(Nc1cnn2ccc(-c3ccccc3C(F)(F)F)nc12)c1ncccn1 [Compound 252] |  |  | B (EC1.5 1-25 μM) | ≥ 350 |  |
| Cc1cc(C)nc(NC(=O)c2cnc3ccc(-c4ccccc4OC[C@H](O)CO)nn23)c1 [Compound 792] |  |  | A (EC1.5<1 μM) | ≥ 350 |  |
| O=C(Nc1cccc(N2CCOCC2)n1)c1cnc2ccc(N3CC[C@@H](F)C3)nn12 [Compound 488] | B (EC1.5 1-25 μM) | ≥ 350 |  |  |  |
| Cc1nc(C(=O)Nc2cnc3ccc(-c4ccccc4OC(F)(F)F)nn23)c(C)s1 [Compound 318] |  |  | A (EC1.5<1 μM) | ≥ 350 |  |
| Cc1nn2ccc(-c3ccccc3C(F)(F)F)nc2c1C(=O)Nc1ccncc1F [Compound 789] |  |  | A (EC1.5<1 μM) | ≥ 350 |  |
| O=C(Nc1cccc(N2CCOCC2)n1)c1nnc2ccc(-c3ccccc3C(F)(F)F)nn12 [Compound 67] |  |  |  |  | TAMRA EC1.5 (μM) [5]: A (EC1.5<1 μM); Emax [6]: ≥ 350% |
| Cc1cc(C)nc(NC(=O)c2cnc3ccc(-c4ccccc4C(F)(F)F)nn23)n1 [Compound 247] |  |  | A (EC1.5<1 μM) | ≥ 350 |  |
| O=C(Nc1nc(CN2CCOCC2)cs1)c1cnc2ccc(-c3cccc(C(F)(F)F)c3)nn12 [Compound 6] |  |  |  |  | TAMRA EC1.5 (μM) [5]: A (EC1.5<1 μM); Emax [6]: ≥ 350% |
| Cc1nn2ccc(-c3ccccc3C(F)(F)F)nc2c1C(=O)Nc1ccncc1 [Compound 560] | A (EC1.5<1 μM) | ≥ 350 |  |  |  |
| COc1cccc(C(=O)Nc2c(C)nn3ccc(-c4ccccc4C(F)(F)F)nc23)n1 [Compound 576] | C (EC1.5>25 μM) | < 350 |  |  |  |
| O=C(Nc1cnc2ccc(-c3ccccc3C(F)(F)F)nn12)c1cccc(N2CCOCC2)n1 [Compound 82] |  |  |  |  | TAMRA EC1.5 (μM) [5]: A (EC1.5<1 μM); Emax [6]: ≥ 350% |
| Cc1cnc(C(=O)Nc2cnn3ccc(-c4ccccc4C(F)(F)F)nc23)s1 [Compound 525] | A (EC1.5<1 μM) | ≥ 350 |  |  |  |
| O=C(Nc1cncnc1)c1cnc2ccc(-c3ccccc3C(F)(F)F)nn12 [Compound 106] |  |  |  |  | TAMRA EC1.5 (μM) [5]: B (EC1.5 1-25 μM); Emax [6]: < 350% |
| Cc1cc(NC(=O)c2cnc3c(C)cc(-c4ccccc4C(F)(F)F)nn23)ccn1 [Compound 540] | A (EC1.5<1 μM) | ≥ 350 |  |  |  |
| Cc1nn2ccc(-c3ccccc3C(F)(F)F)nc2c1C(=O)Nc1cccc(CN2CCOCC2)n1 [Compound 550] | A (EC1.5<1 μM) | ≥ 350 |  |  |  |
| Cc1nc2ccc(-c3ccccc3Cl)nn2c1NC(=O)c1cccc(N2CCOCC2)n1 [Compound 355] |  |  | A (EC1.5<1 μM) | ≥ 350 |  |
| O=C(Nc1cnn2ccc(-c3ccccc3C(F)(F)F)nc12)c1cccnc1 [Compound 250] |  |  | C (EC1.5>25 μM) | < 350 |  |
| O=C(Nc1cccc(OCC(F)(F)F)n1)c1cnc2ccc(-c3ccccc3Cl)nn12 [Compound 262] |  |  | C (EC1.5>25 μM) | < 350 |  |
| Cc1nn2ccc(-c3ccccc3C(F)(F)F)nc2c1NC(=O)c1ncccn1 [Compound 570] | B (EC1.5 1-25 μM) | < 350 |  |  |  |
| Cc1cc(C)nc(NC(=O)c2cnc3ccc(-c4ccccc4OCC(O)CO)nn23)c1 (centres unmarked) [Compound 371] |  |  | A (EC1.5<1 μM) | ≥ 350 |  |
| O=C(Nc1cc(OCC(O)CO)ccn1)c1cnc2ccc(-c3ccccc3C(F)(F)F)nn12 (centres unmarked) [Compound 75, N-(4-(2,3-dihydroxypropoxy)pyridin-2-yl)-6-(2-(trifluoromethyl)phenyl)imidazo[1,2-b]pyridazine-3-carboxamide] |  |  |  |  | TAMRA EC1.5 (μM) [5]: B (EC1.5 1-25 μM); Emax [6]: ≥ 350% |
| O=C(Nc1nc(CN2CCOCC2)cs1)c1cnc2ccc(-c3cccc(Cl)c3)nn12 [Compound 27] |  |  |  |  | TAMRA EC1.5 (μM) [5]: A (EC1.5<1 μM); Emax [6]: ≥ 350% |
